Experimental data published in ChEMBL document CHEMBL1201862, “PubChem BioAssay data set” (2004).
Each block holds one compound with its values, some of them ahead of it. Calls of active or inactive are those of the source.

Experiments:
Estrogen receptor = target: T1, Estrogen receptor (Homo sapiens, UniProt P03372); experiment: ERα coactivator recruitment enhancers – biochemical, TR-FRET, ERα LBD, dose response (AID 737)
T1 sequence (P03372 whole entry): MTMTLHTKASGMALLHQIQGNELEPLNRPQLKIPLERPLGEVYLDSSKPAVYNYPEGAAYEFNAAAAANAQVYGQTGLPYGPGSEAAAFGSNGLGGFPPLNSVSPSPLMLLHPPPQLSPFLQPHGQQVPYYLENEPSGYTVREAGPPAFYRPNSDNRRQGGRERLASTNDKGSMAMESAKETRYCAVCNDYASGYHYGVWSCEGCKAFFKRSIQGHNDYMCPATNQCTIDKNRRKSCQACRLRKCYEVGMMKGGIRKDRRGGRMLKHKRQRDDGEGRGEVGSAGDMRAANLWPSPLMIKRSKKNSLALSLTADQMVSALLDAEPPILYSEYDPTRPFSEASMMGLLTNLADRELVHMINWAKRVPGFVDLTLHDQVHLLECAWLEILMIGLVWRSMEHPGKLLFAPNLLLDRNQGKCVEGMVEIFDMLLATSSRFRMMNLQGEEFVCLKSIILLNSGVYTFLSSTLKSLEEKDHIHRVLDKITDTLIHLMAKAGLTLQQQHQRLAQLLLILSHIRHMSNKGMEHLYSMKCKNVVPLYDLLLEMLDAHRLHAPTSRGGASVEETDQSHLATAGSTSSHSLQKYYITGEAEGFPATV

[1] = target: Transitional endoplasmic reticulum ATPase (Homo sapiens, UniProt P55072, C522A); experiment: C522A mutant p97 ATPase inhibitors, dose response, counter-screen for p97 inhibitor project, biochemical, luminescence (AID 1544)
Sequence of Transitional endoplasmic reticulum ATPase (Homo sapiens, UniProt P55072, C522A) (P55072 2-806 C522A limits assumed): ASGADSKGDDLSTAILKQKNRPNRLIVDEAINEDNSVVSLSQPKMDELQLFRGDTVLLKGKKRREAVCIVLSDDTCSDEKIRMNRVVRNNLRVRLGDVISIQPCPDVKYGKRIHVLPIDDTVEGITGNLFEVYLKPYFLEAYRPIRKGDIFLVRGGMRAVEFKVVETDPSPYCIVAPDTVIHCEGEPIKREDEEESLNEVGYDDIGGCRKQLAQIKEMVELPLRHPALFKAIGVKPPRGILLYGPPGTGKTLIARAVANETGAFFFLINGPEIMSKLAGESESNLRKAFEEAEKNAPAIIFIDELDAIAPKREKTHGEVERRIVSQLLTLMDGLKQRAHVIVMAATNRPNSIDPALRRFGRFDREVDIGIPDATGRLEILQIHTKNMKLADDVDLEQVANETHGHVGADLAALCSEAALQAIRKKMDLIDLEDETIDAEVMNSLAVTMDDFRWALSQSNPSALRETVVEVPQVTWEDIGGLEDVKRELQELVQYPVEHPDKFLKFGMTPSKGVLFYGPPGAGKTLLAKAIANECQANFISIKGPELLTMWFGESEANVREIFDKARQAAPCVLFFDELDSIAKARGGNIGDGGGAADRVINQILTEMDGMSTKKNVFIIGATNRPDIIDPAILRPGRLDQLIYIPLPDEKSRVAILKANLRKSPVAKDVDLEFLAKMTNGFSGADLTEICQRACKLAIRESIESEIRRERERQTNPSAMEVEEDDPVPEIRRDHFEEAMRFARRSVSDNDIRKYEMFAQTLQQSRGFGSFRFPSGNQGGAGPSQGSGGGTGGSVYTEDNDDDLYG

[2] = target: Peroxisome proliferator-activated receptor gamma/Nuclear receptor coactivator 3 (Homo sapiens, UniProt P37231); assay type: functional;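 further: agonist potency for raising coactivator recruitment to the receptor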
[3] = target: Peroxisome proliferator-activated receptor gamma/Nuclear receptor coactivator 2 (Homo sapiens, UniProt P37231); assay type: functional;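 further: agonist potency for raising coactivator recruitment to the receptor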
Sequence of Peroxisome proliferator-activated receptor gamma/Nuclear receptor coactivator 2 (P37231 whole entry): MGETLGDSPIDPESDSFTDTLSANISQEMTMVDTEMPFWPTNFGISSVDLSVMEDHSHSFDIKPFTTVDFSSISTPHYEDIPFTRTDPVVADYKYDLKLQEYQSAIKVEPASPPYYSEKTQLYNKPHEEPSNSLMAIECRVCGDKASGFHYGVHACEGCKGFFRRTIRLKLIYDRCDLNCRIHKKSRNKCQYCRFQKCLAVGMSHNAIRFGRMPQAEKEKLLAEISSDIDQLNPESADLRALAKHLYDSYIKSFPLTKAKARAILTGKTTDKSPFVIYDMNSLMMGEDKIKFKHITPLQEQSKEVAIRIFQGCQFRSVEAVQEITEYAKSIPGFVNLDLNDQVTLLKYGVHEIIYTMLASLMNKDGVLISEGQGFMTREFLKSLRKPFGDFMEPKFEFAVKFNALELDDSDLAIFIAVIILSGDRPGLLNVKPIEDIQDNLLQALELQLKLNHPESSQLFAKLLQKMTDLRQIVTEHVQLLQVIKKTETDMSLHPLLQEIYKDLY
Sequence of Peroxisome proliferator-activated receptor gamma/Nuclear receptor coactivator 2 (Q15596 whole entry, further chain): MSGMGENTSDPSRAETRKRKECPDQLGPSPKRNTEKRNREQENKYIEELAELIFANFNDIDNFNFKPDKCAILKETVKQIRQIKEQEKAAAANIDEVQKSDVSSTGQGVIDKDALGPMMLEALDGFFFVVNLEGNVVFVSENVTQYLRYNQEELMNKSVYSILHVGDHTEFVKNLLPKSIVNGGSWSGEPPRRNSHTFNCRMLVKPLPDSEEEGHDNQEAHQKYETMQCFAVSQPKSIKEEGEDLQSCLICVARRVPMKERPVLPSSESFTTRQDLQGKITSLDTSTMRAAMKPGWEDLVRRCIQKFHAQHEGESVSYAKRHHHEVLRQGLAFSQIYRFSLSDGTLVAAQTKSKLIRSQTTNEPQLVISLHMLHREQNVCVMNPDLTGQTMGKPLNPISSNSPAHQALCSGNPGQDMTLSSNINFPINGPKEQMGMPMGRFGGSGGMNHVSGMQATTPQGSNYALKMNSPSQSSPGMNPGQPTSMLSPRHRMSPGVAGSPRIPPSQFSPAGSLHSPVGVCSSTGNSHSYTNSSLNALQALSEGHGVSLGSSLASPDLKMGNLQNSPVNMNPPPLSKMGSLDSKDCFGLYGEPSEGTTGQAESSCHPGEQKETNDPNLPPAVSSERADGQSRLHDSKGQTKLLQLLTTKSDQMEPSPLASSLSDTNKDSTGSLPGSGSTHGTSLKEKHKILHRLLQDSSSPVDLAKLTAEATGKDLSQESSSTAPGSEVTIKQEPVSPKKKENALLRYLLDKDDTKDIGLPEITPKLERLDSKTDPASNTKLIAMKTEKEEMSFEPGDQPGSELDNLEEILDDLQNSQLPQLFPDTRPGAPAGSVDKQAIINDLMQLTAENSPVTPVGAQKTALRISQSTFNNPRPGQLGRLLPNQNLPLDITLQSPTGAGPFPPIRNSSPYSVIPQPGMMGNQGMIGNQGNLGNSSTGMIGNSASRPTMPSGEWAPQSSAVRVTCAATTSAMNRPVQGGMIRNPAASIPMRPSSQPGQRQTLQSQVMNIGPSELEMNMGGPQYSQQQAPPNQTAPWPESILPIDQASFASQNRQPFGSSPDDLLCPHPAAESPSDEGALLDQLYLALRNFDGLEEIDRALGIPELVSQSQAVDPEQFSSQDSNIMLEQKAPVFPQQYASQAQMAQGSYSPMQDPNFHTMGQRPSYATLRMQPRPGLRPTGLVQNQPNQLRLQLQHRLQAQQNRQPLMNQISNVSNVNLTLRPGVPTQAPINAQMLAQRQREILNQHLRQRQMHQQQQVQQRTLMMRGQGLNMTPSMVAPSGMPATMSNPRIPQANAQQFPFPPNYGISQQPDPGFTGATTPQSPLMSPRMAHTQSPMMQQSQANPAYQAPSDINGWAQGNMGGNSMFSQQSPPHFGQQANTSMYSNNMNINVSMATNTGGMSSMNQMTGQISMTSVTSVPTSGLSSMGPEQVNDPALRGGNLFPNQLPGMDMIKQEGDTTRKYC

[4] = target: Peroxisome proliferator-activated receptor gamma/Nuclear receptor coactivator 1 (Homo sapiens, UniProt P37231); assay type: functional;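 further: agonist potency as compounds enhance coactivator SRC-1 recruitment to PPARgamma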
[5] = target: Transitional endoplasmic reticulum ATPase (Homo sapiens, UniProt P55072); experiment: p97 ATPase inhibitors, dose response, biochemical (AID 1534)
Sequence of Transitional endoplasmic reticulum ATPase (Homo sapiens, UniProt P55072) (P55072 whole entry): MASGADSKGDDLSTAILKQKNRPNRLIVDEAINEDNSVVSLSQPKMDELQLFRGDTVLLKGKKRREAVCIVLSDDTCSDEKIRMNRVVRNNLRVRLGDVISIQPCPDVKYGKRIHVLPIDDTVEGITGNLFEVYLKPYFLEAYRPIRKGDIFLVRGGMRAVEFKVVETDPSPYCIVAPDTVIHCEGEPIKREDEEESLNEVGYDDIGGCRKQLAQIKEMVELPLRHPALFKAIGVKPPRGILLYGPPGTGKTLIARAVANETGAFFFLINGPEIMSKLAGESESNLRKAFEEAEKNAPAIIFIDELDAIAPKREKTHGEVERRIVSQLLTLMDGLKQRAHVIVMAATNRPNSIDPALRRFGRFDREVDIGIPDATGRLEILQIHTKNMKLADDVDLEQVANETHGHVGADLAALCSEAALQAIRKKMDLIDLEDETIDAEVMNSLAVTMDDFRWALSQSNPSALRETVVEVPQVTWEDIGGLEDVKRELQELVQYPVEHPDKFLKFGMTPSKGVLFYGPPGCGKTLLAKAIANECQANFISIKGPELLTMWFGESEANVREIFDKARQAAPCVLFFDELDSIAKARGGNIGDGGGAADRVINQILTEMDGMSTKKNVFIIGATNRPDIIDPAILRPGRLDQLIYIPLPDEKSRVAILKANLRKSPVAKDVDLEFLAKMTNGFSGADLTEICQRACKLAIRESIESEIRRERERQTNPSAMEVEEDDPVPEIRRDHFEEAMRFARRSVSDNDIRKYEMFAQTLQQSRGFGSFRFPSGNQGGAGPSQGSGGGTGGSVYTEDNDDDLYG

[6] = target: T2, Mannose-6-phosphate isomerase (Homo sapiens, UniProt P34949); experiment: MPI enzyme activity inhibition – biochemical, fluorescence intensity, coupled assay, primary screen (AID 1209)
T2 sequence (P34949 whole entry): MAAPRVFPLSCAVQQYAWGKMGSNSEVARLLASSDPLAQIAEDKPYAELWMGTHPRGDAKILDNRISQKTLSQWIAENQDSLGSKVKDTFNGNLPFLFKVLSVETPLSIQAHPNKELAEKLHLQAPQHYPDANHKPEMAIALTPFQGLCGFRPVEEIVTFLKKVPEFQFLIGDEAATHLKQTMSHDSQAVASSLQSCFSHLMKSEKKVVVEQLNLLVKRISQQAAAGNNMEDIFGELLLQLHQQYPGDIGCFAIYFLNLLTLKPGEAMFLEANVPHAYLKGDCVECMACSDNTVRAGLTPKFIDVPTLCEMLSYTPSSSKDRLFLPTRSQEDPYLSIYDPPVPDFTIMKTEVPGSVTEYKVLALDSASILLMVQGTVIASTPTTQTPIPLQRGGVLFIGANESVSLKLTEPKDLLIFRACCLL

[7] = target: Neuropeptide Y receptor type 2 (Homo sapiens, UniProt P49146); assay type: functional, cell-based;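 further: HEK293 cells expressing the receptor and a CNG channel; stimulus was NPY near EC95 followed by isoproterenol to raise cAMP; antagonist potency measured as restoring cAMP signal that NPY suppresses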
Sequence of Neuropeptide Y receptor type 2 (P49146 whole entry): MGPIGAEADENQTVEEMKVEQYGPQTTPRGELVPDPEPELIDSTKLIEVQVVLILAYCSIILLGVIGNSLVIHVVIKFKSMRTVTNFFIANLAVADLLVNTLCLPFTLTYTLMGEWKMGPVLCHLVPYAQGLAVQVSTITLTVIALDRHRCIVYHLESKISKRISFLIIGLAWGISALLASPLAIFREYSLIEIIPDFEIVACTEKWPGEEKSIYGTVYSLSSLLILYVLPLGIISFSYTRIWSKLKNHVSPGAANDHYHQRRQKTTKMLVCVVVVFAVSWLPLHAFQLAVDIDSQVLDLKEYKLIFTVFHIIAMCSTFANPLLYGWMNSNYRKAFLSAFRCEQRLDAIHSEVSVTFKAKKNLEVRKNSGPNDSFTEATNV

[8] = target: Neuropeptide Y receptor type 1 (Homo sapiens, UniProt P25929); assay type: functional;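 further: HEK293 cells with a CNG channel challenged with NPY then isoproterenol; potency as antagonist that reverses NPY suppression of cAMP signal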
Sequence of Neuropeptide Y receptor type 1 (P25929 whole entry): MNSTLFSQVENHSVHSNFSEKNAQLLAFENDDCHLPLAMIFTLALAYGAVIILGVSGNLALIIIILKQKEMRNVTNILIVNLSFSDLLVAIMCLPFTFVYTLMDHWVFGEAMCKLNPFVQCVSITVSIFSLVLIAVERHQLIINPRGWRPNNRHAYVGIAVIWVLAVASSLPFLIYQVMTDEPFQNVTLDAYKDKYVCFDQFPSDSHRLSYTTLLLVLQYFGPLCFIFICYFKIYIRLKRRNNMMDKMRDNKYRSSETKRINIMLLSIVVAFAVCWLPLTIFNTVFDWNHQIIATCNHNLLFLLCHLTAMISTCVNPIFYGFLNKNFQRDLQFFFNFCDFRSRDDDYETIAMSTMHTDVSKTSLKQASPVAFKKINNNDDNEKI

[9] = antiviral protection against BTV-induced cell death – arbovirus, BSR cells, confirmation (AID 1250); assay type: functional;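 further: protection from viral cytopathic effect measured as cell viability by ATP luminescence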
Staphylococcus aureus = experiment: Inhibitors of Bacterial Quorum Sensing Structure Activity Relationship (SAR) Analysis: Dose Response Assay. [Related pubchem assays: 700, 527 ]; assay type: functional, organism-based
[10] = target: T3, E3 ubiquitin-protein ligase XIAP (Homo sapiens, UniProt P98170); experiment: Counter Screen using XIAP-Bir3 for Chemical Antagonists of Bir1/2 domains of IAP-family anti-apoptotic proteins. [Related pubchem assays (depositor defined):AID1018, AID1449, AID1514, AID1638, AID1749, AID1750, AID488957, AID488963]
T3 sequence (P98170 whole entry): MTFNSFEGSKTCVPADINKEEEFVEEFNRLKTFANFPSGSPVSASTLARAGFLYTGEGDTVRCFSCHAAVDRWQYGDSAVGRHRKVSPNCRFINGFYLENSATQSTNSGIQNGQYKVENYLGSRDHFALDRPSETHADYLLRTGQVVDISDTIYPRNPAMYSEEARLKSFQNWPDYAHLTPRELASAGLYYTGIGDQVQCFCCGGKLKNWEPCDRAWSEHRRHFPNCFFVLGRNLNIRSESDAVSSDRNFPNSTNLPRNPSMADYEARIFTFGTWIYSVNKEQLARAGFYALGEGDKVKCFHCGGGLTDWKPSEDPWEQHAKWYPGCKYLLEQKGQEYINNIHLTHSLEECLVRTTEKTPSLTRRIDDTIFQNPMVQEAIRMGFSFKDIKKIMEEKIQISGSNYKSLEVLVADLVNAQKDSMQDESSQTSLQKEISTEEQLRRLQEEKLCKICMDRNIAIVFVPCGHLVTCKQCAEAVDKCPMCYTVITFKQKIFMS

[11] = target: T3, E3 ubiquitin-protein ligase XIAP; experiment: small molecules displacing peptide from XIAP – biochemical, IAP family, fluorescence polarization (AID 1018); assay type: functional

SMILES: CC(C)c1ccc(N2C(=O)CC(Sc3nc[nH]n3)C2=O)cc1 (stereo not drawn)
IC50 [6]: > 50 µM (not active)

SMILES: O=C(COc1ccccc1CNCc1ccccc1)Nc1ccccc1
IC50 [7]: 9.67 µM (active)
IC50 [8]: 5.16 µM (active)

SMILES: COc1ccc2oc3cc(C)[n+]([O-])c(-c4ccc(C)cc4)c3c2c1
IC50 [9]: 23 µM (active)

SMILES: O=C(Nc1ccc2c(c1)OCO2)C(c1ccccc1)N1CCC(Cc2ccccc2)CC1 (stereo not drawn)
IC50 (Staphylococcus aureus): 0.802 µM (active)

Now from value to compound:

EC50 (Estrogen receptor): 7.51 µM (active)
SMILES: COc1ccc(-c2nnc(SCC(=O)c3cc(C)n(Cc4cccs4)c3C)o2)cc1

IC50 [1]: > 50 µM (not active)
EC50 [2]: 9.38 µM (active)
EC50 [3]: > 26.5 µM (not active)
EC50 [4]: > 79.4 µM (not active)
IC50 [5]: > 50 µM (not active)
SMILES: N#Cc1c(NC(=O)c2ccccc2Cl)n(Cc2ccccc2)c2nc3ccccc3nc12

IC50 [10]: > 100 µM (inactive)
IC50 [11]: > 100 µM (not active)
SMILES: COc1ccc(CC(=O)Oc2cc(C)nc(O)c2[N+](=O)[O-])cc1
